Test results taken from US20240239787A1, “COMPOUNDS FOR USE IN THE TREATMENT OF CANCER” (Nanyang Technological University, priority 2021, published 2024).

Assays:
[1] = system: HIF-1α; assay: HIF-1α level in hypoxic Hela cells (immunofluorescence imaging, Western blot); assay type: cell-based, human
Procedure: (§1) HeLa, Hek293T, MDA-MB-231, 4T1 or B16F10 cells (1.5×10^6 cells/mL) were treated with J266 (10 μM) for 6 h before incubating with JQ1-CBT at the indicated concentrations and time. This entire incubation was performed in normoxia condition. For NTR-moiety caged JW4, the cells were treated with JW4 (10 μM) 6 h prior to the addition of JQ1-CBT for a subsequent 12 h, and was performed entirely under hypoxic condition. Comparison of the downstream effect between the controls and drug-treated cells were completely executed in hypoxic condition. To work up, the cells were washed with cold PBS (pH 7.4) twice, and lysed with RIPA buffer supplemented with protease inhibitor cocktail and phosphatase inhibitor cocktail for 10 min at 4° C. Then, the lysed cells were collected and centrifuged at 13,500 rpm for 20 min at 4° C. The supernatant was collected and the protein concentration was analyzed by NanoDrop™ 2000/2000c Spectrophotometers. The lysate volumes were fine-tuned and loaded onto a Mini-PROTEAN® TGX™ 4-20% Precast Gel and was separated by SDS-PAGE. Then, the gel was transferred onto a PVDF membrane (100 V, 90 min, 4° C.), washed with TBS-T twice, and blocked with 1% BSA for 1 h at r.t. Next, the membrane was incubated with primary antibody overnight at 4° C., washed thrice with TBS-T, followed by incubation with goat anti-rabbit IgG (H+L) Secondary Antibody, HRP for 1 h. The membrane was supplemented with Radiance Q chemiluminescent ECL substrate and visualized using Amersham™ ImageQuant™ 800 biomolecular imager. B-Tubulin was used as the internal control.
Hela cells were plated at a density of 8×10^4 cells/mL in each well of the eight-well ibidi dishes before experiment. To sustain the hypoxia-induced factor throughout the drug treatment process, drug incubation was performed entirely in hypoxic chamber. […] The fluorescence of the alleviated HIF-1α expression upon drug treatment was visualized with Carl Zeiss LSM 800 microscopes (Hoechst 33258: Ex=405 nm, Em=460/50 nm; Alexa Fluor 488: Ex=488 nm, Em=515/30 nm; Alexa Fluor 594: Ex=561 nm, Em=617/20 nm).

[2] = system: CA9; assay: CA9 level in hypoxic Hela cells (Western blot); assay type: cell-based, human
Procedure: as §1, with “The membrane was supplemented with Radiance Q chemiluminescent ECL substrate and visualized using Amersham™ ImageQuant™ 800 biomolecular imager. B-Tubulin was used as the internal control.” left out

[3] = system: zebrafish larvae; assay: Vascularization of vhl mutant and wide type zebrafish larvae (confocal imaging); assay type: in vivo; settings: vhl^hu2117 crosses, 10 μM; non-treatment approximately one quarter
Procedure: Vasculature zebrafishes were obtained from natural crosses of the AB wild-type strain or vhl^+/hu2117 carriers on the fli1a:egfp^y1 transgenic background (which fluorescently marks the vasculature). JW4 and JQ1-CBT were dissolved in DMSO and the mixture was applied to embryos at equimolar concentration of 10 μM, with J252 (10 μM) and JQ1 (10 μM) used for the control experiments. […] The vascular plexus was imaged on a Zeiss LSM800 confocal microscope. Green: blood vessel tracker, .ex: 488 nm, .em: 520/30 nm; red: . ex: 564 nm, .em: 610/30 nm.

[4] = target: T1, BRD4 (Mus musculus, UniProt Q9ESU6); assay: BRD4 level in B16F10 tumour lysates of mice (Western blot); assay type: in vivo; settings: intratumoral 5 mg/kg every 4 h up to 8 h
T1 construct: from tissue; host or cells: B16F10 tumour in C57BL/6J mice, tumour lysate
From the text: We further investigated the feasibility of tumour microenvironment-activatable epigenetic BRD4 protein degradation and further validated the potential anti-tumour efficacy of ENCTAC in a C57BL/6J mice model. Typically, we implanted B16F10 mouse melanoma cell line into the right flank of living mice and the solid tumour was monitored to grow until palpable size before undergoing targeted protein disruption and therapeutic studies (FIG. 24a). The living mice bearing tumours were first subject to NTR-Cy7, a reported NTR enzyme responsive probe molecule (Li, Y. et al., J. Am. Chem. Soc. 2015, 137, 6407-[…]), followed by animal imaging scanning.
(§2) B16F10 cells at a density of 2×10^6 cells were injected subcutaneously into the right flank of six- to eight-week-old mice. Once the tumours became palpable, intratumoral injection of the buffer solution as vehicle, JQ1, and JW4 and JQ1-CBT at dosage of 5 mg/kg were performed for every 4 h up to 8 h. The mice were sacrificed and protein extraction were carried out. The protein levels in lysis samples were analysed by western blot by following the protocol in Example 12. Histology and immunofluorescence staining were performed by following the protocol in Example 13. […] Images were captured using the EVOS M5000 imaging system (Thermo Fischer Scientific, Waltham, MA, USA) and quantified using ImageJ.

[5] = system: HIF-1α; assay: HIF-1α level in B16F10 tumour lysates of mice (Western blot); assay type: in vivo, mouse; settings: intratumoral 5 mg/kg every 4 h up to 8 h
Procedure: as §2, with “13. Specifically, the resected tumours were fixed in 4% paraformaldehyde for 48 h, washed with PBS, and gradually transferred to 15% sucrose, followed by 30% sucrose before being embedded in O.C.T. compound. Five-micrometre cryosections of the tumour samples were dehydrated and blocked with a blocking buffer containing 2% BSA, 1% Tween 20, 3% Triton X, and horse serum for an hour before being incubated with primary antibodies, followed by a washing step and then incubation with secondary antibodies. The primary antibodies used were Ki67 and CD31.” for “13.”

[6] = system: c-Myc; assay: c-Myc level in B16F10 tumour lysates of mice (Western blot); assay type: in vivo, mouse; settings: intratumoral 5 mg/kg every 4 h up to 8 h
Procedure: as §2, with “13. Specifically, the resected tumours were fixed in 4% paraformaldehyde for 48 h, washed with PBS, and gradually transferred to 15% sucrose, followed by 30% sucrose before being embedded in O.C.T. compound. Five-micrometre cryosections of the tumour samples were dehydrated and blocked with a blocking buffer containing 2% BSA, 1% Tween 20, 3% Triton X, and horse serum for an hour before being incubated with primary antibodies, followed by a washing step and then incubation with secondary antibodies. The primary antibodies used were Ki67 and CD31.” for “13.”

[7] = system: B16F10 mouse melanoma; assay: Antitumour efficacy in B16F10 tumour bearing C57BL/6J mice; assay type: in vivo; settings: daily treatment, 5 days, vs vehicle

With `Cc1sc2c(c1C)C(c1ccc(Cl)cc1)=N[C@@H](CC(=O)OC(C)(C)C)c1nnc(C)n1-2` [JQ1] the HIF-1α protein level [1] was “did not alter”, the CA9 amount [2] was “partially downgrade” and the vascularized larvae [3] was 21.3%. For the same molecule, the “BRD4 protein level in tumour” value [4] was “trivial effect”, the “HIF-1α protein level in tumour” value [5] was “trivial effect” and the “c-Myc expression in tumour” value [6] was “downgrade c-Myc expression”. The “tumour progression (serial volumetric measurement)” value [7] was “reduced tumour growth”.
